The source of these data is patent US20030153808A1, “Implantation rate using ff-mas” (priority 2000, published 2003).

The structures appear in SMILES notation.

Assay [1] deals with adult, cycling rat. The assay can be described thus: Embryo implantation in the cycling rat after subcutaneous treatment. Format: in vivo. The note with it: 20 mg/kg s.c. once daily d1-d8, mating d7, uteri checked d16, female Wistar rats, 5 animals/group; vehicle 10 ± 4. Here is the method: A total of 15 sexually mature female Wistar rats with a body weight of 200-220 g and a 4-day cycle were used. The animals were divided in one control group (group 1) and two treatment groups (group 2-3) consisting of 5 animals/group, respectively.
Starting in metestrus (d1) animals were treated for eight days (d1-d8), once daily, subcutaneously with the test compounds (treatment groups) or vehicle (control group), respectively. At day 7, at proestrus, animals were mated. The success of mating was checked by the presence of sperms in the vagina at d8. At d16 animals were sacrificed. Uteri were removed and checked for the presence of implantation sides. In each animal the number of implantation sides were determined.
Control group 1 received vehicle alone [(ethanol/arachisoil, 1+9 (v/v)].
Group 2 received 20 mg/kg FF-MAS, prepared in an ethanol/arachisoil vehicle.
Group 2 received 20 mg/kg FF-MAS-succinate, prepared in an ethanol/arachisoil vehicle.

The subject of assay [2] is mouse oocytes. Put plainly: Implantation rate after IVF: mouse oocyte cultivation with FF-MAS, in vitro-fertilization, tubal retransfer to foster mothers. Format: cell-based. The method, then:
Oocytes are obtained by puncture using a fine needle from the ovaries of mice primed with PMSG (pregnant mare serum gonadotrophin). The oocytes are cultivated for approx. 20 hours in a defined hypoxanthine-containing culture medium (Hx medium, see above) with FF-MAS (10 μM) (37° C.). The control oocytes are cultivated in defined culture medium without FF-MAS for the same period of time. Both the FF-MAS-oocytes and the control oocytes have begun meiosis maturation at the end of the culture period. All oocytes punctured on one day (from various mice) are pooled and distributed over the two study groups.
The oocytes cultivated in the mouse oocyte assay are further processed in this experiment. They are washed briefly 3× in a defined medium not containing FF-MAS and subsequently transferred into an IVF medium not containing FF-MAS. Then a defined number of capacitated sperms (obtained from the epididymides of a male mouse) is added and the oocytes are incubated with the sperms for approx. 4 hours in an incubator at 37° C. Following incubation the number of inseminated oocytes is counted.
1 day before the retransfer female recipient mice (foster mothers) in pre-estrus are mated with vasectomized males in order to trigger pseudogestation. One day later a vaginal check is performed. Animals with positive, sperm-free vaginal prop (successful mating) enter the study. This day is day 0 of gestation (=day 0 after the sterile copulation). Approx 10-15 inseminated oocytes are transferred into one tube (right) to the foster mothers on day 0 after the sterile copulation under anesthetization. The contralateral tube remains unused (check for pseudogestation). Only inseminated oocytes from the IVF experiment are used.
Retransfer is repeated until approx. 20 evaluable litters (with viable fetuses) have been obtained in all study groups (10 μM FF-MAS and one untreated control group).
The foster mothers are killed on day 17 of gestation. Uteri are removed. The number of viable and dead fetuses, the number of foster mothers, the number of pregnant foster mothers and the number of pregnant foster mothers with viable fetuses and with total fetal death, respectively, are counted.

Assay [3] has as its system mouse oocytes. The note with it: added to the culture medium; Hegele-Hartung et al. 1998; cited from earlier work.
Assay [4] has as its system human oocytes. The note with it: Grøndahl et al. 1999; cited from earlier work.

With `CC(C)=CCC[C@@H](C)[C@H]1CC=C2C3=C(CC[C@@]21C)[C@@]1(C)CC[C@H](O)C(C)(C)[C@@H]1CC3` [FF-MAS, 4,4-dimethyl-5a-cholesta-8,14,24-triene-3β-ol], the “Number of implantation sides [x ± sd] d16” value in assay [1] turned out to be 15 ± 3. Further, the “Number of pregnant foster mothers [n]” value in assay [2] (10 μM FF-MAS in culture medium, 69 foster mothers, control 43 of 153) is listed as 27 n. For the same compound, in assay [2] (10 μM FF-MAS in culture medium, % of foster mothers, control 28), the “Number of pregnant foster mothers [%]” value is 40%. Further, the “Number of pregnant foster mothers with viable fetuses [%]” value in assay [2] (10 μM FF-MAS in culture medium, % of pregnant foster mothers, control 47) is listed as 78%. Moreover, in assay [2] (10 μM FF-MAS in culture medium, % of pregnant foster mothers, control 54), the “Numbers of pregnant foster mothers with total fetal death [%]” value is given as 22%. In assay [2] (10 μM FF-MAS in culture medium, control 20), the “Number of pregnant foster mothers with viable fetuses [n]” value amounted to 21 n. Also, the “Numbers of pregnant foster mothers with total fetal death [n]” value in assay [2] (10 μM FF-MAS in culture medium, control 23) is recorded as 6 n. In addition, the “Number of viable fetuses [n]” value in assay [2] (10 μM FF-MAS in oocyte culture medium approx. 20 h, IVF, retransfer, foster mothers killed day 17 of gestation, 69 foster mothers, control 45 of 153) amounted to 42 n. In addition, the fertilization rate result in assay [3] is recorded as “increase the fertilization rate”. Besides, the “nuclear and cytoplasmic maturation” value in assay [4] is “improvement in nuclear and cytoplasmic maturation”.

On to `CC(C)=CCCC(C)C1CC=C2C3=C(CCC21C)C1(C)CCC(OC(=O)CCC(=O)O)C(C)(C)C1CC3` (centres unmarked) [FF-MAS-succinate], for which the “Number of implantation sides [x ± sd] d16” value in assay [1] is on record as 12 ± 2.
